Here are results for four compounds from publication PMC13304707 (Acta Pharmaceutica Sinica. B, 2025).

Data set [1] can be described thus: Cell cytotoxicity, CCK-8 assay. Format: cell-based. As to conditions: African green monkey, Vero E6 cells. (Formazan colour is commonly taken as a measure of viable cells.)
Data set [2] has as its system VPS34. As to conditions: read-out: enzymatic inhibitory potency against VPS34; ref [30], [31], [32], [33]; cited from earlier work.
The nature of data set [3]: Degradation in liver microsomes. In kind it is in vitro ADME. For orientation: Microsomes from liver hold many membrane-bound enzymes, among them those of drug oxidation.
The target of data set [4] is CYP3A4 (Homo sapiens, UniProt P08684). The experiment in a line: Screening of cytochrome P450 enzymes responsible for degradation. In kind it is in vitro ADME. As to conditions: liver microsomes, CYP450 screening.
CYP3A4, sequence (P08684 whole entry, species assumed): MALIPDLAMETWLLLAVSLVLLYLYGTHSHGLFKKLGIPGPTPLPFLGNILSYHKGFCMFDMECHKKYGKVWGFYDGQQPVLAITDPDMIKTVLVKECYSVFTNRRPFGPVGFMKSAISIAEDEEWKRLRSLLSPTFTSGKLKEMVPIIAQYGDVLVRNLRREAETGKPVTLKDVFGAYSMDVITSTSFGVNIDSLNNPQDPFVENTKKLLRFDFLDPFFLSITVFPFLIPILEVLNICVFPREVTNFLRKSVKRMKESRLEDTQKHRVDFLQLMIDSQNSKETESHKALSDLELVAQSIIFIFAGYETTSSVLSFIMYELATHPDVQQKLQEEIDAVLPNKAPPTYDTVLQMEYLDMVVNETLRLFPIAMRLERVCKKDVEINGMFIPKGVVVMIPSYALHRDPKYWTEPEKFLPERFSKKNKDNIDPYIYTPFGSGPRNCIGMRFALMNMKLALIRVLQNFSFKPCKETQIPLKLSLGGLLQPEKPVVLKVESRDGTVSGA
Data set [5] can be described thus: Plasma PK profile after single intraperitoneal injection. Format: in vivo, C57BL/6 mice.
Data set [6] can be described thus: Tissue distribution after ip administration. The note with it: 10 mg/kg ip. Format: in vivo, mice.

A word on the CC50: it is the concentration giving 50% cytotoxicity. A lower CC50 goes with harm at low concentration. For orientation: AUC(0-t) means exposure summed from dosing to a finite time, without extrapolation to infinity. Usually Cmax stands for the peak of the concentration-time curve. As usually defined, the half-life is the time needed for the level to fall by half in the phase considered. A high value points to slow decline. Broadly, the Tmax is the time at which the peak concentration occurs.

`Nc1ncc(-c2ccnc(Nc3ccncc3)n2)c(CC2CC2)n1` [PIK-III] displayed a CC50 at 48 h in data set [1] of 45.8 µM. Besides, the IC50 in data set [2] was 0.018 µM.
Consider `C[C@@H]1COCCN1c1cc(=O)n2c(n1)N(Cc1cncc(Cl)c1)[C@H](C(F)(F)F)CC2` [SAR405], for which, in data set [3], the “time to extensive degradation to minimal levels in liver microsomes” value is listed as […]. The compound also showed a CC50 at 48 h in data set [1] of […]. Besides, the “degradation upon addition of 6β-hydroxytestosterone, a specific inhibitor of CYP3A4” value in data set [4] was “almost completely attenuated”. In data set [2], the IC50 was […]. Besides, in data set [5] (C57BL/6, mouse, ip, 10 mg/kg), the AUC(0-t) was found to be […], the concentration peaked (Cmax) at 5820 ± 723 ng/mL and the half-life is […]. Also, the Tmax in data set [5] (C57BL/6, mouse, ip, 10 mg/kg, Tmax, mice, 10 mg/kg ip) was found to be 8.4 ± 6 min. In data set [5] (mice, 10 mg/kg ip), the CL amounted to […]. In data set [6], the “time to Cmax in tissues (cardiorespiratory and renal systems)” value is not above 10 min.
Take `CC(C)(O)CNc1ncc(-c2ccnc(Nc3ccnc(Cl)c3)n2)c(CC2CC2)n1` [VPS34-IN-1]: in data set [1], the CC50 at 48 h is 11 µM. Further, the IC50 in data set [2] was 0.025 µM.
In data set [1], `CC(C)C(=O)CN1c2nc(N3CCOC[C@H]3C)cc(=O)n2CC[C@H]1C(F)(F)F` [VPS34-IN-2, (2S)-8-[(3R)-3-methylmorpholin-4-yl]-1-(3-methyl-2-oxobutyl)-2-(trifluoromethyl)-3,4-dihydro-2H-pyrimido[1,2-a]pyrimidin-6-one] yielded a CC50 at 48 h of 54.5 µM.
